The structures appear in SMILES notation.

The text below walks through data of patent US7488733B2, “6-arylamino-5-cyano-4-pyrimidinones as pde9a inhibitors” (Boehringer Ingelheim International GmbH, priority 2003, dated 2009).

Assay [1] deals with T1, PDE9A (Homo sapiens, UniProt O76083). The conditions noted are these: concentrations of up to 100 μM; cited from earlier work.
In assay [2] the target is T1, PDE9A. The experiment in a line: PDE9A inhibition (scintillation proximity assay). The assay is classed as biochemical. Details: made in house; host or cells: Sf9 insect cells, pFASTBAC baculovirus. The conditions noted are these: recombinant PDE9A, Table 2; read-out: PDE9A-inhibiting effect IC50. The procedure: The test substances are dissolved in 100% DMSO and serially diluted to determine their in vitro effect on PDE 9A. […] 2 μL portions of the diluted substance solutions are introduced into the wells of microtiter plates (Isoplate; Wallac Inc., Atlanta, Ga.). Then 50 μL of a dilution of the PDE9A preparation described above are added. The dilution of the PDE9A preparation is chosen so that less than 70% of the substrate is converted during the subsequent incubation (typical dilution: 1:10 000; dilution buffer: 50 mM Tris/HCl pH 7.5, 8.3 mM MgCl2, 1.7 mM EDTA, 0.2% BSA). The substrate, [8-^3H] guanosine 3′,5′-cyclic phosphate (1 μCi/μL; Amersham Pharmacia Biotech., Piscataway, N.J.) is diluted 1:2000 with assay buffer (50 mM Tris/HCl pH 7.5, 8.3 mM MgCl2, 1.7 mM EDTA) to a concentration of 0.0005 μCi/μL. The enzyme reaction is finally started by adding 50 μL (0.025 μCi) of the diluted substrate. […] Immediately thereafter, 25 μL of a suspension containing 18 mg/mL Yttrium Scintillation Proximity Beads (Amersham Pharmacia Biotech., Piscataway, N.J.) are added. The microtiter plates are sealed with a film and left to stand at room temperature for 60 min. The plates are then measured for 30 s per well in a Microbeta scintillation counter (Wallac Inc., Atlanta, Ga.). IC50 values are determined from the graphical plot of the substance concentration versus the percentage inhibition.

A further assay addresses T2, PDE2A (Homo sapiens, UniProt O00408).
T2 construct: made in house; host or cells: Sf9 insect cells, pFASTBAC baculovirus
The experiment in a line: PDE2A inhibition. It counts as biochemical. The settings on record: human isoenzyme. The source says: (§1) Recombinant PDE1C (GenBank/EMBL Accession Number: NM_005020, Loughney et al. J. Biol. Chem. 1996 271, 796-806), PDE2A (GenBank/EMBL Accession Number: NM_002599, Rosman et al. Gene 1997 191, 89-95), PDE3B (GenBank/EMBL Accession Number: NM_000922, Miki et al. Genomics 1996, 36, 476-485), PDE4B (GenBank/EMBL Accession Number: NM_002600, Obernolte et al. Gene. 1993, 129, 239-247), PDE5A (GenBank/EMBL Accession Number: NM_001083, Loughney et al. Gene 1998, 216, 139-147), PDE7B (GenBank/EMBL Accession Number: NM_018945, Hetman et al. Proc. Natl. Acad. Sci. U.S.A. 2000, 97, 472-476), PDE8A (GenBank/EMBL Accession Number: AF—056490, Fisher et al. Biochem. Biophys. Res. Commun. […]
(§2) The test substances are dissolved in 100% DMSO and serially diluted to determine their in vitro effect on PDE 9A. […] The plates are then measured for 30 s per well in a Microbeta scintillation counter (Wallac Inc., Atlanta, Ga.). IC50 values are determined from the graphical plot of the substance concentration versus the percentage inhibition.
(§3) The in vitro effect of test substances on recombinant PDE3B, PDE4B, PDE7B, PDE8A, PDE10A and PDE11A is determined in accordance with the assay protocol described above for PDE 9A with the following adaptations: [5′,8-^3H] adenosine 3′,5′-cyclic phosphate (1 μCi/μL; Amersham Pharmacia Biotech., Piscataway, N.J.) is used as substrate. […]

The next assay concerns the target T3, PDE1C (Homo sapiens, UniProt Q14123).
T3 construct: made in house; host or cells: Sf9 insect cells, pFASTBAC baculovirus
The experiment in a line: PDE1C inhibition. The assay is classed as biochemical. The conditions noted are these: human isoenzyme.
Excerpt: as §1, §2, §3

Another assay addresses PDE4B (Homo sapiens, UniProt Q07343). As to the kind of experiment: PDE4B inhibition. It counts as biochemical. The settings on record: human isoenzyme.
Excerpt: as §1, §2, §3

The next assay addresses T4, PDE10A (Homo sapiens, UniProt Q9Y233).
T4 construct: made in house; host or cells: Sf9 insect cells, pFASTBAC baculovirus
As to the kind of experiment: PDE10A inhibition. It counts as biochemical. The settings on record: human isoenzyme.
Excerpt: as §1, §2, §3

Another assay concerns the target T5, PDE8A (Homo sapiens, UniProt O60658).
T5 construct: made in house; host or cells: Sf9 insect cells, pFASTBAC baculovirus
The experiment in a line: PDE8A inhibition. The assay is classed as biochemical. The conditions noted are these: human isoenzyme.
Excerpt: as §1, §2, §3

The next assay concerns the target T6, PDE5A (Homo sapiens, UniProt O76074).
T6 construct: made in house; host or cells: Sf9 insect cells, pFASTBAC baculovirus
The experiment in a line: PDE5A inhibition. The assay is classed as biochemical. The settings on record: human isoenzyme.
Excerpt: as §1, §2, §3

In a further assay the target is T7, PDE7A (Homo sapiens, UniProt Q9NP56).
T7 construct: made in house; host or cells: Sf9 insect cells, pFASTBAC baculovirus
As to the kind of experiment: PDE7A inhibition. It counts as biochemical. The settings on record: human isoenzyme.

A further assay addresses T8, PDE3B (Homo sapiens, UniProt Q13370).
T8 construct: made in house; host or cells: Sf9 insect cells, pFASTBAC baculovirus
As to the kind of experiment: PDE3B inhibition. The settings on record: human isoenzyme. The assay is classed as biochemical.
Excerpt: as §1, §2, §3

The target of another assay is T9, Murine PDE9A (Mus musculus, UniProt O70628).
T9 sequence (O70628 1-534): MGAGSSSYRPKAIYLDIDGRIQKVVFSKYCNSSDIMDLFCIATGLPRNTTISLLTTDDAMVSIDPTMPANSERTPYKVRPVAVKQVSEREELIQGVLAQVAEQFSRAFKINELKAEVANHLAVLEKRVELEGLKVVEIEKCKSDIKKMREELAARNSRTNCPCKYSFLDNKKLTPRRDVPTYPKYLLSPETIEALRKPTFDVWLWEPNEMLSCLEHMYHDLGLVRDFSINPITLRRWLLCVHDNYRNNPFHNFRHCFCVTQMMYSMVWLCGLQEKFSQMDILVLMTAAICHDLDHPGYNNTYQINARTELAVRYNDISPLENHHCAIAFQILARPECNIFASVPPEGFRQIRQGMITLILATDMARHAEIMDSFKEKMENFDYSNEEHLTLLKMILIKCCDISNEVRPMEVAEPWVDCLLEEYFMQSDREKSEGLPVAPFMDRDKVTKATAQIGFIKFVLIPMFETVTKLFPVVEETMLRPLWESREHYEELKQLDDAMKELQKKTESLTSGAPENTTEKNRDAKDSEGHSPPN
The conditions noted are these: concentrations below 200 μM; cited from earlier work.

T1 sequence (O76083 whole entry): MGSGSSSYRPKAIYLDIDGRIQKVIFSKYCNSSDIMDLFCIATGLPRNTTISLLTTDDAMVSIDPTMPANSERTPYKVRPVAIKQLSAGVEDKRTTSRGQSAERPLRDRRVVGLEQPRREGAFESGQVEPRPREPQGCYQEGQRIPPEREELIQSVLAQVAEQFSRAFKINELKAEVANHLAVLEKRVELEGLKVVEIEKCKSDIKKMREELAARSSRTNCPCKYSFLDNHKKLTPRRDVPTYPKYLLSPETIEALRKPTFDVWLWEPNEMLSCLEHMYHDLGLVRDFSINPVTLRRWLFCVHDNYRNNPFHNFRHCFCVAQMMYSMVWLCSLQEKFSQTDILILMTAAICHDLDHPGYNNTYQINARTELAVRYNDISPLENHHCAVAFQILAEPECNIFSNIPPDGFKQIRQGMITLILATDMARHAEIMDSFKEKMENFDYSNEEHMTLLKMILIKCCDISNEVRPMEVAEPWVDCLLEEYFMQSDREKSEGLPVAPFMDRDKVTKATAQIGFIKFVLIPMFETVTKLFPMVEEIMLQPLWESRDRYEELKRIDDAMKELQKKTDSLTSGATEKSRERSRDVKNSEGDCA
PDE4B, sequence (Q07343 212-736 limits assumed): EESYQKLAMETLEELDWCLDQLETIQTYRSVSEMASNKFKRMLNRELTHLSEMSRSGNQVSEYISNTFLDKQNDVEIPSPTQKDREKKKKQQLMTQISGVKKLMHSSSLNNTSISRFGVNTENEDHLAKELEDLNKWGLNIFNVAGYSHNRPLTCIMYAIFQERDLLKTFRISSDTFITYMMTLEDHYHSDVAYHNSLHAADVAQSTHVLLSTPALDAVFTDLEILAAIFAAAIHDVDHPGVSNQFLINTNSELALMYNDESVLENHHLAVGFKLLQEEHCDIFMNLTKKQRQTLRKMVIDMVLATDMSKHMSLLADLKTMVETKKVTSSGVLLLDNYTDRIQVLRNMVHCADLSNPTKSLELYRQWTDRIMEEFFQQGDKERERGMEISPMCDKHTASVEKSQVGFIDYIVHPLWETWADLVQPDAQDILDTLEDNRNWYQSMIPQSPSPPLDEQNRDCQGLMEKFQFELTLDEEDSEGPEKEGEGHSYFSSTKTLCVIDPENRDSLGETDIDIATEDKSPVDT
T5 sequence (O60658 117-829 limits assumed): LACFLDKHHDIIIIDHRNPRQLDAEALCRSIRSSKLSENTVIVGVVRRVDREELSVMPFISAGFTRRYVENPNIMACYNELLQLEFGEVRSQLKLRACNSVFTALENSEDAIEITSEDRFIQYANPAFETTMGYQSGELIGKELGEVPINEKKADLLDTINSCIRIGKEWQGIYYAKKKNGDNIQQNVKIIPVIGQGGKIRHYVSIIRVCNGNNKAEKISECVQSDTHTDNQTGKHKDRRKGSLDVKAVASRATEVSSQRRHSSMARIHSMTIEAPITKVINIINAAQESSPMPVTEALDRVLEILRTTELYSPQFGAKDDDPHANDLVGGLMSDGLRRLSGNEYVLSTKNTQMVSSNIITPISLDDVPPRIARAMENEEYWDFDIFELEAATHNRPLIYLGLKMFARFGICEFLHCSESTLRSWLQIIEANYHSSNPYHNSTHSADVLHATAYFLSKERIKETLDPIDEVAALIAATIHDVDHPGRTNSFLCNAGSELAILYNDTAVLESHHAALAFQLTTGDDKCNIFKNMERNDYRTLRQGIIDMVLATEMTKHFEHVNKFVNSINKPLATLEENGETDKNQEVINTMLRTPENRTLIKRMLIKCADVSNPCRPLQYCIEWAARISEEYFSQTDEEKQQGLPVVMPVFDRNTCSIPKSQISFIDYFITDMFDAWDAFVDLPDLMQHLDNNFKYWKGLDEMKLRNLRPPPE
T7 sequence (Q9NP56 whole entry): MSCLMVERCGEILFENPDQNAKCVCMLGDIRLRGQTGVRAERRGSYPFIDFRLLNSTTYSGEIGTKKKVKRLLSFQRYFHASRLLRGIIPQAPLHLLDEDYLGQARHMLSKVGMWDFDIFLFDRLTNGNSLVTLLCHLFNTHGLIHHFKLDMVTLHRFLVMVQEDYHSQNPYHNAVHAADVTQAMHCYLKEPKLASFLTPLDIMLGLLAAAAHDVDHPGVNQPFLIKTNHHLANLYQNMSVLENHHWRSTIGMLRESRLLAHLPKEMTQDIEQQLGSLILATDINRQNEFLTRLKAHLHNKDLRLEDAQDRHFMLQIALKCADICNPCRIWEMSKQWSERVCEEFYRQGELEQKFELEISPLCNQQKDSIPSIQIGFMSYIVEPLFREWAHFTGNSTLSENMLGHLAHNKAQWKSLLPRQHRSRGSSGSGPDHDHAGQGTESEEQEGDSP
T2 sequence (O00408 whole entry): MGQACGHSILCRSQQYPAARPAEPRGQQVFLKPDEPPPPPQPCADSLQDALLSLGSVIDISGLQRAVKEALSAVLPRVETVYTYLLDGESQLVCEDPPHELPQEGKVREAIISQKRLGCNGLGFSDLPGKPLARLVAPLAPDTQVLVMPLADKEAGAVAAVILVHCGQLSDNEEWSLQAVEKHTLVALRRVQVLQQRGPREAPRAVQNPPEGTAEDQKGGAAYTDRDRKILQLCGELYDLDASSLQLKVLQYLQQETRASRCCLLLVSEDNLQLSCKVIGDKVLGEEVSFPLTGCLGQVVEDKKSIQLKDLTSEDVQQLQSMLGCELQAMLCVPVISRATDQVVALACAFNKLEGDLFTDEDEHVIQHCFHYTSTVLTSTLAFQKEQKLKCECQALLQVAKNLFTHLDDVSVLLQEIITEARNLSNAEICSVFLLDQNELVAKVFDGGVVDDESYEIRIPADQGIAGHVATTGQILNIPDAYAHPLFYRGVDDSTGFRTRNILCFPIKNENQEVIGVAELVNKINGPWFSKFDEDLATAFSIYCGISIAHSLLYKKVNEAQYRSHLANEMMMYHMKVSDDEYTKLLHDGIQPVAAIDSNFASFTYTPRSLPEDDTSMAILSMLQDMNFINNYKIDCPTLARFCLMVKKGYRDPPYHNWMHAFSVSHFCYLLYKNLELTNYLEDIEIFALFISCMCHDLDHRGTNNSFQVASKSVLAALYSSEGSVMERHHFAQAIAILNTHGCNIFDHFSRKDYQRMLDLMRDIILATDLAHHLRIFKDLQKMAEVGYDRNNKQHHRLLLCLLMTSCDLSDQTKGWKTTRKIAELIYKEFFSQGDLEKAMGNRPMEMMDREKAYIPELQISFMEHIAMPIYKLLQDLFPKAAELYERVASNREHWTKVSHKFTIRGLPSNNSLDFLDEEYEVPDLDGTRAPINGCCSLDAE
T4 sequence (Q9Y233 1-779 isoform Q9Y233-1): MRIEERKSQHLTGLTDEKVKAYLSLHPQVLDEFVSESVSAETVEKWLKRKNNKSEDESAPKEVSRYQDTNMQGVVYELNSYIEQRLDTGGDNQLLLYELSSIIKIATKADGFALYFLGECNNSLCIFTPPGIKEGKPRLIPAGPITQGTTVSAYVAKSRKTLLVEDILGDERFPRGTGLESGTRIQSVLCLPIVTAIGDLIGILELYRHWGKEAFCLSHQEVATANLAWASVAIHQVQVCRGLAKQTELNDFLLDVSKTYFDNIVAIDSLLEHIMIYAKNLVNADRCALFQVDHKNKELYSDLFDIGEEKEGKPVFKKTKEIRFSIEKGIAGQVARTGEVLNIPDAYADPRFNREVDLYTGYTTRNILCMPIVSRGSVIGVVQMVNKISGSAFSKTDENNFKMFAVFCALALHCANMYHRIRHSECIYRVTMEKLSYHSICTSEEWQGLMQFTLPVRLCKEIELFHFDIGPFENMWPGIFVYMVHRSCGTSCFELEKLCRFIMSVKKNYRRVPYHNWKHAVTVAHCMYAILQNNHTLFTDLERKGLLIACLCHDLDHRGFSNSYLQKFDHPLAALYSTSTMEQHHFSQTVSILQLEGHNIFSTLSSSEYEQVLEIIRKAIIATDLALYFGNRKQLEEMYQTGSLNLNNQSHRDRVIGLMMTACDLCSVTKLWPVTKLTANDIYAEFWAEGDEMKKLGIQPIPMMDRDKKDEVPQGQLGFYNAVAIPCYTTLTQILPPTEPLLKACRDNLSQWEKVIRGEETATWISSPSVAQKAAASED

For the compound `OCCN(CCO)c1nc(N2CCCCC2)c2nc(N(CCO)CCO)nc(N3CCCCC3)c2n1` [dipyridamole], the “inhibition of isolated human PDE9A” value at PDE9A [1] is “no inhibition”.

As usually defined, the IC50 is the concentration at which inhibition is half-maximal. As to `Cc1c(F)cccc1Nc1nc(CC2CCCC2)[nH]c(=O)c1C#N` [Example 7, 2-(Cyclopentylmethyl)-4-[(3-fluoro-2-methylphenyl)amino]-6-oxo-1,6-dihydro-5-pyrimidinecarbonitrile], at PDE9A [2], the IC50 was determined as 54 nM.

Take `CCOC(=O)C1=C[C@]2(CC)CCCN3CCc4c(n1c1ccccc41)[C@@H]32` [vinpocetine]: the “inhibition of isolated human PDE9A” value at PDE9A [1] is listed as “no inhibition”.

Take `Cc1ccncc1Nc1nc(CC2CCCCC2)[nH]c(=O)c1C#N` [Example 3, 2-(Cyclohexylmethyl)-4-[(4-methyl-3-pyridinyl)amino]-6-oxo-1,6-dihydro-5-pyrimidinecarbonitrile]: the IC50 against PDE2A is more than 4000 nM; on PDE1C, more than 4000 nM; at PDE4B it was more than 4000 nM; against PDE10A, more than 4000 nM; at PDE8A, more than 4000 nM; on PDE5A it was 1400 nM. The IC50 against PDE7A and at PDE3B was more than 4000 nM in each case.

In the case of `CCC(C)Cc1nc(Nc2ccccc2C)c(C#N)c(=O)[nH]1` (stereo not drawn) [Example 14, 2-(2-Methylbutyl)-4-[(2-methylphenyl)amino]-6-oxo-1,6-dihydro-5-pyrimidinecarbonitrile], the IC50 on PDE9A [2] is 75 nM.

Regarding `CC(C)Cn1c(=O)n(C)c(=O)c2[nH]cnc21` [IBMX], at PDE9A [1], the “inhibition of isolated human PDE9A” value is given as “no inhibition”. Also, the “inhibition of murine PDE9A” value at Murine PDE9A is “not inhibited”.

Consider `Cc1ccc(F)cc1Nc1nc(CC2CCCC2)[nH]c(=O)c1C#N` [Example 23], for which the IC50 at PDE9A [2] was determined as 87 nM.

With `N#Cc1c(Nc2ccc(F)cc2)nc(CC2CCCC2)[nH]c1=O` [Example 1, 2-(Cyclopentylmethyl)-4-[(fluorophenyl)amino]6-oxo-1,6-dihydro-5-pyrimidinecarbonitrile], the IC50 at PDE9A [2] stood at 75 nM.

For the compound `CC(=O)Nc1ccc(-c2c[nH]c(=O)cn2)cc1` [SKF94120], the “inhibition of isolated human PDE9A” value at PDE9A [1] is on record as “no inhibition”.

`COc1ccc(C2CNC(=O)C2)cc1OC1CCCC1` (stereo not drawn) [rolipram]: the “inhibition of isolated human PDE9A” value on PDE9A [1] is listed as “no inhibition”.
